Key:
[1] = biological target: Serine/threonine-protein kinase PAK 6 (Homo sapiens) (UniProt Q9NQU5); assay: Selectivity interaction (KinomeScan (DiscoverX)) EUB0001079a PAK6; conditions: at 1 µM
[2] = biological target: T1, Tyrosine-protein kinase ITK/TSK (Homo sapiens) (UniProt Q08881); assay: Selectivity interaction (Kinase panel (KiNativ target engagement assay in Jurkat cells)) EUB0001635a ITK; type: cell-based; conditions: at 1 µM
T1 sequence (whole entry): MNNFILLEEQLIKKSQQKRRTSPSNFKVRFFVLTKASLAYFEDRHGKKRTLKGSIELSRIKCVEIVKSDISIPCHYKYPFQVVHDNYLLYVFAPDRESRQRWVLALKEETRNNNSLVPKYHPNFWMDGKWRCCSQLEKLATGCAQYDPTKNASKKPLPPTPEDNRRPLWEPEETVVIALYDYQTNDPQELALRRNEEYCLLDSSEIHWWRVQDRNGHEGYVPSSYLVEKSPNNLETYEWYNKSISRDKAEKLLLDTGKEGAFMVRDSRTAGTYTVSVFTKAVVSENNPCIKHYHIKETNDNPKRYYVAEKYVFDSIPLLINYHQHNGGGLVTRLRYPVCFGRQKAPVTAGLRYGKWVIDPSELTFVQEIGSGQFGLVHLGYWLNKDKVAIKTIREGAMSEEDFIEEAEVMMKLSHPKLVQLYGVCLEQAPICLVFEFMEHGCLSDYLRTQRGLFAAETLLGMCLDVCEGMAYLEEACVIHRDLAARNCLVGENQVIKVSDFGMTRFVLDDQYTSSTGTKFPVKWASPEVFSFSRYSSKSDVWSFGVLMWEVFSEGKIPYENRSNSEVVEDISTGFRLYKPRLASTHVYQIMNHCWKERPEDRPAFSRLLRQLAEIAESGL

[3] = biological target: Tyrosine-protein kinase Fyn (Homo sapiens) (UniProt P06241); assay: Selectivity interaction (ActivX KiNativ screen (kinase selectivity in THP-1 cell lysates)) EUB0000639a FYN; type: subcellular; conditions: lysate, at 0.2 µM
Chain of Tyrosine-protein kinase Fyn (Homo sapiens) (P06241 2-537 limits assumed): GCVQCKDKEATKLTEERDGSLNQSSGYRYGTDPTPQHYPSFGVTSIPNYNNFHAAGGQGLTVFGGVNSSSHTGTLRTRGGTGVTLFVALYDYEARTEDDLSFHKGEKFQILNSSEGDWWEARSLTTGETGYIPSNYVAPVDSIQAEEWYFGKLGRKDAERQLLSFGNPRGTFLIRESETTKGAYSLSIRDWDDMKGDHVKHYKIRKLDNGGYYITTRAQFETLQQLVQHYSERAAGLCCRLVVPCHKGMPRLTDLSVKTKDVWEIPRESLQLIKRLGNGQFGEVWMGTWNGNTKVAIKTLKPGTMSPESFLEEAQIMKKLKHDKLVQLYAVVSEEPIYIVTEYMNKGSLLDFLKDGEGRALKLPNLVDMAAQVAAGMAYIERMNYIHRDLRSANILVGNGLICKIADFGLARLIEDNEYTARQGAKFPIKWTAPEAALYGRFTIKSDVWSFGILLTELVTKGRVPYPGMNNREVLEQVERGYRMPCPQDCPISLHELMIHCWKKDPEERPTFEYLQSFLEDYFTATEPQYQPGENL

[4] = biological target: T2, Serine/threonine-protein kinase D2 (Homo sapiens) (UniProt Q9BZL6); assay: Selectivity interaction (ActivX KiNativ screen (kinase selectivity in THP-1 cell lysates)) EUB0000639a PRKD2; type: subcellular; conditions: lysate, at 1 µM
T2 sequence (whole entry): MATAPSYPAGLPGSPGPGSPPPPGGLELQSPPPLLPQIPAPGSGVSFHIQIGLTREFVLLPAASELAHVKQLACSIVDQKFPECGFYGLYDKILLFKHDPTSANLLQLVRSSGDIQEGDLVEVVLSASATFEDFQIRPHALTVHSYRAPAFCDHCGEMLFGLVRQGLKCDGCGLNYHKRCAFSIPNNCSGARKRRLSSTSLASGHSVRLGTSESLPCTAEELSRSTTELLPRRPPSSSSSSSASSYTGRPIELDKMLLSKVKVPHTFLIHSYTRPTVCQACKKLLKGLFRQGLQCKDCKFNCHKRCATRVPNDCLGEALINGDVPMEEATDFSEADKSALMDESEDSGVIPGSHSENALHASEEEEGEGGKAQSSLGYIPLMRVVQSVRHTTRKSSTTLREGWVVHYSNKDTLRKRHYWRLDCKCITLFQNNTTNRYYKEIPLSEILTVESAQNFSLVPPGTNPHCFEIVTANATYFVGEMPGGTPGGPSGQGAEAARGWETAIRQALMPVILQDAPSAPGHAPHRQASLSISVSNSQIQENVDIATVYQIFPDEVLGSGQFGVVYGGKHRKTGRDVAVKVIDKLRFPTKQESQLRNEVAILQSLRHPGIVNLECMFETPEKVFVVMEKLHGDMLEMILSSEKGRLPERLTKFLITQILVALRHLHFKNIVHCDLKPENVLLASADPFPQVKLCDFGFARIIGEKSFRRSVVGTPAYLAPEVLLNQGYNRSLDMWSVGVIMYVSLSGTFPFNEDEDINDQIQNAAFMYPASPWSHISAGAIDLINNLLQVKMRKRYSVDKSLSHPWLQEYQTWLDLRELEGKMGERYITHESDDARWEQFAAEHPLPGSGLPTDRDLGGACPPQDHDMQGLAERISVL

[5] = biological target: Serine/threonine-protein kinase N2 (Homo sapiens, UniProt Q16513); assay: Selectivity interaction (KinomeScan (DiscoverX)) EUB0000092b PKN2; conditions: at 10 µM
Chain of Serine/threonine-protein kinase N2 (Q16513 whole entry, looked up): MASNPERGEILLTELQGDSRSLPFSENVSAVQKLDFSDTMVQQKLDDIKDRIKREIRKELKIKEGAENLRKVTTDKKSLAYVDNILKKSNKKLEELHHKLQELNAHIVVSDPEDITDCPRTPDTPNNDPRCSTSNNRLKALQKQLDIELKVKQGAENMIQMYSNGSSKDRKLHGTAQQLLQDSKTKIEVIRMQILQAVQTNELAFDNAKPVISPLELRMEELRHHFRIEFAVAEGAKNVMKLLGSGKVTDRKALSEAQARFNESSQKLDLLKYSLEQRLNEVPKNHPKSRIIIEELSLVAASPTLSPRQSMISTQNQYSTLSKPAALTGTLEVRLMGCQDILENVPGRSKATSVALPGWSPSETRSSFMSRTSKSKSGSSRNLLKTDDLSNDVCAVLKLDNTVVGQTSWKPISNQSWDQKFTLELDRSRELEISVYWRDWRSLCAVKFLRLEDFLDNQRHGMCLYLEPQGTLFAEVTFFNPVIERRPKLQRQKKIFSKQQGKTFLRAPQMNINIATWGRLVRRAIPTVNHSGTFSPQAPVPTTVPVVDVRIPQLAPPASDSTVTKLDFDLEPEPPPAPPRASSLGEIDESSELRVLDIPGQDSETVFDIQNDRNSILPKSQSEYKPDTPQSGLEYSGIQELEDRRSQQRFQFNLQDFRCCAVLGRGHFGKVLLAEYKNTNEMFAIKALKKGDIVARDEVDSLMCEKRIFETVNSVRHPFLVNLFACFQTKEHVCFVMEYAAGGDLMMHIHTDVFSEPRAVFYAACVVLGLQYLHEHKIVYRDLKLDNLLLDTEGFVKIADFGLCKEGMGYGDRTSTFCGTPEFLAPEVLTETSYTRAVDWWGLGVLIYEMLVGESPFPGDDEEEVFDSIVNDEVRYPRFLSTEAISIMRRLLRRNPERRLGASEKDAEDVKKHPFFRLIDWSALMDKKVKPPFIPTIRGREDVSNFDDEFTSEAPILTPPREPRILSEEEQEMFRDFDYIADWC

[6] = biological target: T3, Serine/threonine-protein kinase BRSK2 (Homo sapiens) (UniProt Q8IWQ3); assay: Selectivity interaction (Ambit KINOMEscan and KiNATiv profiling in Jurkat cells) EUB0000090b BRSK2; type: cell-based; conditions: at 1 µM
T3 sequence (whole entry): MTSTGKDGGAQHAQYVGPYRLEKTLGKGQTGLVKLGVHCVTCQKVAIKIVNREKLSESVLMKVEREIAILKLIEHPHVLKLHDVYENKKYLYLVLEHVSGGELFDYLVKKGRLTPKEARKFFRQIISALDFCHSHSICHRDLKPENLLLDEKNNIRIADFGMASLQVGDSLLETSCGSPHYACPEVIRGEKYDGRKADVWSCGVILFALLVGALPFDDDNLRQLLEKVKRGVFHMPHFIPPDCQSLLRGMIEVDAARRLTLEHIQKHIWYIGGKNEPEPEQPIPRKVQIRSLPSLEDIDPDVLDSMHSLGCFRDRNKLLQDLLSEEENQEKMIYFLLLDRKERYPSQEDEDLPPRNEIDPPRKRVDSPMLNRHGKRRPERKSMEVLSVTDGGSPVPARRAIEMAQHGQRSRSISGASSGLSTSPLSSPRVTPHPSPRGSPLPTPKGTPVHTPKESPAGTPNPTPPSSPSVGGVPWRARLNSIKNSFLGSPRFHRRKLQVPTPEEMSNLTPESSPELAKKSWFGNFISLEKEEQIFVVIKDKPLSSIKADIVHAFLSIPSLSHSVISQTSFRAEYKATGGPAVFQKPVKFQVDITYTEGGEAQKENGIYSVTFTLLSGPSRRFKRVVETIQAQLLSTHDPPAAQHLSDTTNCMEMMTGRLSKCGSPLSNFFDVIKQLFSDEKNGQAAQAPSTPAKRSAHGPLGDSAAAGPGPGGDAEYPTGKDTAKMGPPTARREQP

[7] = biological target: Serine/threonine-protein kinase 33 (Homo sapiens) (UniProt Q9BYT3); assay: Selectivity interaction (KinomeScan (DiscoverX)) EUB0000618a STK33; conditions: at 10 µM
Chain of Serine/threonine-protein kinase 33 (Homo sapiens) (Q9BYT3 whole entry, looked up): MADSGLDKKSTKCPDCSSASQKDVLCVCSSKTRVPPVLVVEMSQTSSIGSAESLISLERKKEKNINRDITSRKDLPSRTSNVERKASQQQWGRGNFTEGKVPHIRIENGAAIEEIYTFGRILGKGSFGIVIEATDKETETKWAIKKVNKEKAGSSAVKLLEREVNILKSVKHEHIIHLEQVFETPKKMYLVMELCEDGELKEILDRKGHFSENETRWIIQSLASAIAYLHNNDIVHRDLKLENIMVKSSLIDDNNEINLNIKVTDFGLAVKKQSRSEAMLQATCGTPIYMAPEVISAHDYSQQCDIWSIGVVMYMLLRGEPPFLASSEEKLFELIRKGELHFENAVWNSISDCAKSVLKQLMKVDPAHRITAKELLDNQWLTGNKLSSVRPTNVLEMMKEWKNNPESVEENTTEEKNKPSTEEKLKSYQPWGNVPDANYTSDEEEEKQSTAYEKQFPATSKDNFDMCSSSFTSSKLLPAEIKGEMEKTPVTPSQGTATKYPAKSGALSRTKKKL

D(2) dopamine receptor = D(2) dopamine receptor (Homo sapiens, UniProt P14416); assay: Selectivity interaction (Panel of kinases, GPCRs, ion channels and transporters (enzymatic assay)) EUB0000266bCl DRD2
Chain of D(2) dopamine receptor (P14416 whole entry): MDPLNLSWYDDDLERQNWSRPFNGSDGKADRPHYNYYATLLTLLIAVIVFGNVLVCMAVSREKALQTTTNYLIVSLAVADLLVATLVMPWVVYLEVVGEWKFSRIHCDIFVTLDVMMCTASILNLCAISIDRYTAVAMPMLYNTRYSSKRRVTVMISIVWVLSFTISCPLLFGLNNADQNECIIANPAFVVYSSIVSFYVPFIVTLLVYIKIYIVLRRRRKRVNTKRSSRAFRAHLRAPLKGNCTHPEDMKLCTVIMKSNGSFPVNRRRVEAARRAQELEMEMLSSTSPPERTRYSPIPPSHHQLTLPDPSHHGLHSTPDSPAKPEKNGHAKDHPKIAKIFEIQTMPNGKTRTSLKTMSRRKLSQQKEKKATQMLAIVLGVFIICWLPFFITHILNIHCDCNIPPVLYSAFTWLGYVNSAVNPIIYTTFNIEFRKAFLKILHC

OATP1B1 (SLCO1B1) = OATP1B1 (SLCO1B1) (Homo sapiens, UniProt Q9Y6L6); assay: Selectivity interaction (Panel of kinases, GPCRs, ion channels and transporters (enzymatic assay)) EUB0000266bCl SLCO1B1; conditions: not told
Chain of OATP1B1 (SLCO1B1) (Q9Y6L6 whole entry): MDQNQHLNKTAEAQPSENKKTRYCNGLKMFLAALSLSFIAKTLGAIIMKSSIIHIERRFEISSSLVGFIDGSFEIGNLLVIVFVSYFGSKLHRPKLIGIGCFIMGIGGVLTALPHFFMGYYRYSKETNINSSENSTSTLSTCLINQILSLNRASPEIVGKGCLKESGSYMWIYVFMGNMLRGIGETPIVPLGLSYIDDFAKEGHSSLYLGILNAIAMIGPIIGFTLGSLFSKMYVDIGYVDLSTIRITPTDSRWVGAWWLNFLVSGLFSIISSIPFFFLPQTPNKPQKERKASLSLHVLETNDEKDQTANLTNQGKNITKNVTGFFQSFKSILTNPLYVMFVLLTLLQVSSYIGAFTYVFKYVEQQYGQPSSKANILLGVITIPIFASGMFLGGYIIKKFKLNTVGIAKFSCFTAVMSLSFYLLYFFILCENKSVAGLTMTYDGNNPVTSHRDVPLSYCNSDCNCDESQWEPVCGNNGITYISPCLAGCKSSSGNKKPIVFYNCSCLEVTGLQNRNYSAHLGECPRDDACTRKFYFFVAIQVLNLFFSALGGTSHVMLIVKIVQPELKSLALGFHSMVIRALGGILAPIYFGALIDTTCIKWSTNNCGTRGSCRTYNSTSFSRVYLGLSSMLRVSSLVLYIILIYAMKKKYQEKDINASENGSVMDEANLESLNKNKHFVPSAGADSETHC

[8] = biological target: Serine/threonine-protein kinase tousled-like 2 (Homo sapiens) (UniProt Q86UE8); assay: Selectivity interaction (KinomeScan (DiscoverX)) EUB0000607a TLK2; conditions: at 10 µM
Chain of Serine/threonine-protein kinase tousled-like 2 (Homo sapiens) (Q86UE8 whole entry, looked up): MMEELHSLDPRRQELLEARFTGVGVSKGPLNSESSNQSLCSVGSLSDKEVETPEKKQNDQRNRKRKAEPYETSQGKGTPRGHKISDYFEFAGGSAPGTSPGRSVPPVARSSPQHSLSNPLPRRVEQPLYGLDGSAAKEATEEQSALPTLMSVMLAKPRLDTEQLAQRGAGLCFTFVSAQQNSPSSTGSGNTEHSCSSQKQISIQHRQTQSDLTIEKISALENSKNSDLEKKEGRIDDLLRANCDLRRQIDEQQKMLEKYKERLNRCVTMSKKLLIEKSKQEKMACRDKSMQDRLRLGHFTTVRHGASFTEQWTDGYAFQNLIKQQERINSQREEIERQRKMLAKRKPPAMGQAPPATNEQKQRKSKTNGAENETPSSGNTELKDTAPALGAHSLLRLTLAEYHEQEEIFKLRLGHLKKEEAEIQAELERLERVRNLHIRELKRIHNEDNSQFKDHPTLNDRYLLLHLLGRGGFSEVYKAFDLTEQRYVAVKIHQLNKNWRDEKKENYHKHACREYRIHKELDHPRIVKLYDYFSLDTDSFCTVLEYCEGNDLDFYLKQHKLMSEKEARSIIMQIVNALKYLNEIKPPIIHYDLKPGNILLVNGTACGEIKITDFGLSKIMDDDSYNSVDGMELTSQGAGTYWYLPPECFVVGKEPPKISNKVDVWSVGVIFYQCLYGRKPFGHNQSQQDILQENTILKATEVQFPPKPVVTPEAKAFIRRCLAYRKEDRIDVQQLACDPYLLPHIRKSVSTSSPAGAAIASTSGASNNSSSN

Chain of Serine/threonine-protein kinase PAK 6 (Homo sapiens) (Q9NQU5 whole entry, looked up): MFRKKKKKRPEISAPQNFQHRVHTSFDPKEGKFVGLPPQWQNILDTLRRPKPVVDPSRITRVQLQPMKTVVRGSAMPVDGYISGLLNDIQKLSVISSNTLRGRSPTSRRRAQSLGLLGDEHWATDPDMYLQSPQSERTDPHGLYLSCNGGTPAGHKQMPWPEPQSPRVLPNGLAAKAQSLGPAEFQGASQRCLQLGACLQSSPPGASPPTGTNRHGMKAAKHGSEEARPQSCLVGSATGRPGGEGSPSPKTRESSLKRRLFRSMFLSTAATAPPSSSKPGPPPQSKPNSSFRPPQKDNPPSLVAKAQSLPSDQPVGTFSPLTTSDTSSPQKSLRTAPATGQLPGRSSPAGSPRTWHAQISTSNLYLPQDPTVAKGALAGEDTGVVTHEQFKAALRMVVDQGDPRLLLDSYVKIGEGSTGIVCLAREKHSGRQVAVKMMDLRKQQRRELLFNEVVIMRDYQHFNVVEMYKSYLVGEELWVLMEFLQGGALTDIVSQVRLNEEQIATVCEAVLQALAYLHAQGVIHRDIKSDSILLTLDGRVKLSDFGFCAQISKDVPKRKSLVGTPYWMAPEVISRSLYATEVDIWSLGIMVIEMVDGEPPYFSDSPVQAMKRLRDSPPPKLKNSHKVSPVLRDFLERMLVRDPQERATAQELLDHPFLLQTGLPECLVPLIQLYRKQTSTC

## Nc1cnc(N2CCc3cc(S(=O)(=O)Nc4c(F)cc(Cl)cc4F)cc(N4CCCC4=O)c32)nc1 [TP-020n]
[1]
  % of control: 100%

## C=CC(=O)Nc1ccc(C(=O)Nc2[nH]nc3c2CN(C(=O)N[C@H](CN(C)C)c2ccccc2)C3(C)C)cc1
[2]; Selectivity number of off-targets 0.0, Selectivity number of targets 233.0, Source Knowledge https://www.sciencedirect.com/science/article/pii/S2451945619300674?via%3Dihub
  % of engagement: 0.3%
[2]
  % of engagement: 2.5%

## CC[C@@H]1[C@H](F)C(=O)N[C@@H]1COc1nccc2cc(C(N)=O)c(OC)cc12 [ZIMLOVISERTIB]
[3]
  % of inhibition: 0.7%
[4]
  % of inhibition: 8%

## CCC(=O)N1CCN(c2ccc(-n3c(=O)ccc4cnc5ccc(-c6cnc7ccccc7c6)cc5c43)cc2C(F)(F)F)CC1
[5]
  % of control: 65%

## CN(C)C/C=C/C(=O)Nc1ccc(C(=O)N2CCCC(Nc3ncc(Cl)c(-c4c[nH]c5ccccc45)n3)C2)cc1 (stereo unspecified)
[6]
  % of control: 100%

## O[C@H]1CC[C@H](Nc2ncc3nc(Nc4c(F)cc(F)cc4F)n([C@H]4CCOC4)c3n2)CC1
[7]
  % of control: 100%

## CCn1c(-c2nc3cc(C(=O)N4CCCC(N)C4)ccc3n2C)cc2ccccc21 (stereo unspecified)
D(2) dopamine receptor
  pXC50: 4.5 M
OATP1B1 (SLCO1B1)
  XC50: > 50.1 µM

## CNC(=O)Nc1ccc(-c2nc(N3CC4CCC(C3)O4)c3cnn(C4CCC5(CC4)OCCO5)c3n2)cc1
[8]
  % of control: 100%

Reference: ChEMBL document CHEMBL5465560, “Selectivity Literature for EUbOPEN Chemogenomic Library” (2024)
